In BindingDB's records for doi:10.7270/Q2CJ8BXT (Burnham Center For Chemical Genomics, 2010):

Target: T1, Type-1 angiotensin II receptor (Homo sapiens, UniProt P30556)
T1 sequence (P30556 whole entry): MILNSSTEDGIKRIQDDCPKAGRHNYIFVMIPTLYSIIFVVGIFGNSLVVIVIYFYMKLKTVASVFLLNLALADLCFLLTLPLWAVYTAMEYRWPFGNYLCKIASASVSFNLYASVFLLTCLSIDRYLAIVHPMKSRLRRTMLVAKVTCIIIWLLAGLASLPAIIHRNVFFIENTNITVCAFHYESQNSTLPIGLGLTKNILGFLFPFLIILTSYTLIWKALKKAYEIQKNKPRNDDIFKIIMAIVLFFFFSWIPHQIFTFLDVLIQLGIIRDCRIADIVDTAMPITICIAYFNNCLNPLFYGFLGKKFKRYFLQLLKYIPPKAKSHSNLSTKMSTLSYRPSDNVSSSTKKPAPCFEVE
Assay: antagonism of angiotensin II type 1 receptor – cell-based, uHTS hits, selectivity assay for APJ receptor antagonist project, dose response (AID 463214)

| SMILES | IC50 |
| --- | --- |
| CCOC(=O)c1[nH]nc(C(O)c2ccc(Cl)cc2)c1-c1ccccc1 (configuration not stated) [SMR000271792] | 39.9 µM |
| COC(=O)c1[nH]nc(C(O)c2ccc(Cl)cc2)c1-c1ccc(OC)cc1 (configuration not stated) [MLS000702189] | 28.4 µM |
| O=C1C=CC([N+](=O)[O-])=CC1CN=Nc1ccc(Cl)nn1 (configuration not stated) [SMR000184399] | 3.63 µM |
| Cc1[nH]n(C(N)=S)c(=O)c1N=Nc1ccc([N+](=O)[O-])cc1 [3-Methyl-4-(4-nitro-phenylazo)-5-oxo-4,5-dihydro-pyrazole-1-carbothioic acid amide] | 35.3 µM |
| CCOC(=O)C1C(C)=NC2=C(C(=O)CC(c3cccs3)C2)C1c1cccs1 (configuration not stated) [2-Methyl-5-oxo-4,7-di-thiophen-2-yl-1,4,5,6,7,8-hexahydro-quinoline-3-carboxylic acid ethyl ester] | 36 µM |
| Cc1ncc(C=O)c(CNNc2ccc(C(F)(F)F)cn2)c1O | 28.7 µM |
| COc1ccc2c(c1)C(O)C(=O)[C@H](c1ccc(OC)c(Br)c1)O2 (some centres not stated) | 34.6 µM |
